Consider 19 compounds from patent publication US20260083851A1 (AVILAR THERAPEUTICS, INC., priority 2022, published 2026).

Test [1] concerns the target TNF (Homo sapiens, UniProt P01375). In words: TNF FP Assay. It counts as binding. To be noted: TNF 20 nM, 25° C., 2 hours. The protocol:
TNF (20 nM) and test compound in 47 mM HEPES pH 6.5, 47 mM NaCl, 0.9 mM EDTA, 0.007% Triton X-100 were incubated at 25° C. for 2 hours. Fluorescence data was read with an Envision and plotted versus Compound concentration and fit to a single-site binding model.

The target of test [2] is T1, ASGP receptor (biotinylated ASGPR) (Homo sapiens, UniProt P07306).
T1 construct: biotin (biotinylated)
T1 sequence (P07306 1-291): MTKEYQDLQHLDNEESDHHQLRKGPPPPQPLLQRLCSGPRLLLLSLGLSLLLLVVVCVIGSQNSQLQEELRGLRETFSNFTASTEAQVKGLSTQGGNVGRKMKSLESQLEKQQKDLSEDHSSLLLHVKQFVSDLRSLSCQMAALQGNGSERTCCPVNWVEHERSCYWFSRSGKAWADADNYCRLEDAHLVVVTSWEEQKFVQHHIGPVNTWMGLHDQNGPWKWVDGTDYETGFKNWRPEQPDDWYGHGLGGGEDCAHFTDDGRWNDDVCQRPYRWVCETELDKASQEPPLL
It counts as binding. The following applies: SPR; Table 2; read-out: ASGPR SPR Binding KD.

Test [3] deals with IgG. Nature of the test: IgG SPR binding. The following applies: second table, read-out: IgG KD.
The target in test [4] is T2, ASGPR receptor on HepG2 cells (ternary complex with AF488-labeled antibody) (Homo sapiens, UniProt P07306).
T2 construct: host or cells: HepG2
T2 sequence (P07306 1-291): T1 sequence (P07306 1-291)
T2 sequence (P07307 1-311 partner): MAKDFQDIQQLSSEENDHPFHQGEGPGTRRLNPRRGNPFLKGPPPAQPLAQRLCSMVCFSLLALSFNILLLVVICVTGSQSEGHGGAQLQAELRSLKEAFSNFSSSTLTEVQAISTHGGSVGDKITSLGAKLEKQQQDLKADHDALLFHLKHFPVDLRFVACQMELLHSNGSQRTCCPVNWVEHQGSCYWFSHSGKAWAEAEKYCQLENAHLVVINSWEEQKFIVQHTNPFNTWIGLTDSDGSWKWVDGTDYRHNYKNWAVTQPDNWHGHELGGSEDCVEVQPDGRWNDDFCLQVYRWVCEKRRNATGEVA
In words: Ternary complex formation assay (flow cytometry, cell-associated AF488 fluorescence). To be noted: 100 nM AF488-labeled antibody, 1 hour at 4° C., the 25th table, class symbols, read-out: TCF EC50. It counts as cell-based.

The target of test [5] is T3, ASGPR (Homo sapiens, UniProt P07306).
T3 construct: biotin (biotinylated)
T3 sequence (P07306 1-291): T1 sequence (P07306 1-291)
Nature of the test: ASGPR SPR binding. The following applies: second table, read-out: ASGPR KD. For orientation: Surface plasmon resonance follows binding to a sensor surface in real time, without labels.

Test [6] has as its system HepG2 cells. In words: Cellular uptake assay (high-content imaging). It counts as cell-based, human. To be noted: Homo sapiens, 100 nM AF488-labeled antibody, 6 hours at 37° C., the 25th table, class symbols, read-out: Uptake EC50.

One may read the IC50 as the concentration that inhibits the measured activity by half. A low value points to inhibition by little substance. A word on the Kd: it is the equilibrium constant for the complex coming apart. As usually defined, the EC50 is the concentration that produces a half-maximal response.

Sequence of TNF (P01375 77-233 limits assumed): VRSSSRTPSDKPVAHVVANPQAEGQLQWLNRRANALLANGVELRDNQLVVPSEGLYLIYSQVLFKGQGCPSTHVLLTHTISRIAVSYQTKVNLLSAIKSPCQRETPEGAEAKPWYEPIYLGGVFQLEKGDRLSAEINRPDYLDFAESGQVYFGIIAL

`O=C(CC(=O)NC[C@H]1OC[C@H](Nc2cncc(C(F)(F)F)n2)[C@@H](O)[C@H]1O)NCCOCCOCCOCc1ccc(-c2cccc3ccncc23)c(OCCc2ccc(-c3cccc4ccncc34)cc2)c1` [compound 1] returned a half-inhibitory concentration (IC50) in test [1] (Table 2) of 100 to 500 nM. Also, the Kd in test [2] was less than 100 nM. Regarding `O=C(CCOCC(COCCC(=O)NCCOCCOCCOCCOC[C@H]1OC[C@H](Nc2cncc(C(F)(F)F)n2)[C@@H](O)[C@H]1O)NCC(=O)N1CCN(Cc2ccc(-c3c[nH]c4ccncc34)c(OCCc3ccc(-c4cccc5ccncc45)cc3)c2)CC1)NCCOCCOCCOCCOC[C@H]1OC[C@H](Nc2cncc(C(F)(F)F)n2)[C@@H](O)[C@H]1O` [compound 2], in test [1] (Table 2), the half-maximal inhibitory concentration (IC50) was greater than 1000 nM. Further, the dissociation constant Kd in test [2] was less than 100 nM.

In the case of `O=C(COCCOCC(=O)N1CCN(Cc2ccc(-c3c[nH]c4ccncc34)c(OCCc3ccc(-c4cccc5ccncc45)cc3)c2)CC1)NC[C@H]1OC[C@H](Nc2cncc(C(F)(F)F)n2)[C@@H](O)[C@H]1O` [compound 3], the IC50 in test [1] (Table 2) is less than 100 nM. In test [2], the Kd is less than 100 nM.

In test [1] (Table 2, numeric bound), `O=C(COc1ccc(CN2CCN(C[C@H]3OC[C@H](Nc4cncc(C(F)(F)F)n4)[C@@H](O)[C@H]3O)CC2)cc1)N1CCN(Cc2ccc(-c3c[nH]c4ccncc34)c(OCCc3ccc(-c4cccc5ccncc45)cc3)c2)CC1` [compound 4] gave an IC50 greater than 112 nM. For the same compound, the Kd in test [2] was less than 100 nM. Turning to `O=C(CCOCC(COCCC(=O)NCCOCCOCCOCCOC[C@H]1OC[C@H](Nc2cncc(C(F)(F)F)n2)[C@@H](O)[C@H]1O)NC(=O)COCCOCCOCCOCCOCC(=O)N1CCN(Cc2ccc(-c3c[nH]c4ccncc34)c(OCCc3ccc(-c4cccc5ccncc45)cc3)c2)CC1)NCCOCCOCCOCCOC[C@H]1OC[C@H](Nc2cncc(C(F)(F)F)n2)[C@@H](O)[C@H]1O` [compound 5], in test [1] (Table 2, numeric bound), the IC50 is greater than 136 nM. On to `O=C(CNC[C@H]1OC[C@H](Nc2cncc(C(F)(F)F)n2)[C@@H](O)[C@H]1O)NCCOCCOCCOCc1ccc(-c2cccc3ccncc23)c(OCCc2ccc(-c3cccc4ccncc34)cc2)c1` [compound 6], for which the 50% inhibitory concentration (IC50) in test [1] (Table 2) lay within 100 to 500 nM.

`O=C(COCCOCCOCCOCCOCC(=O)N1CCN(Cc2ccc(-c3c[nH]c4ccncc34)c(OCCc3ccc(-c4cccc5ccncc45)cc3)c2)CC1)NC[C@H]1OC[C@H](Nc2cncc(C(F)(F)F)n2)[C@@H](O)[C@H]1O` [compound 7] displayed an IC50 in test [1] (Table 2) of less than 100 nM. In addition, the dissociation constant Kd in test [2] is less than 100 nM. The compound `O=C(NC[C@H]1OC[C@H](Nc2cncc(C(F)(F)F)n2)[C@@H](O)[C@H]1O)N1CCN(Cc2ccc(-c3c[nH]c4ccncc34)c(OCCc3ccc(-c4cccc5ccncc45)cc3)c2)CC1` [compound 8] came in with an IC50 in test [1] (Table 2) greater than 1000 nM. Moreover, the dissociation constant Kd in test [2] was less than 100 nM. `O=C(CCOCC(COCCC(=O)NCCOCCOCCOCCOC[C@H]1OC[C@H](Nc2cncc(C(F)(F)F)n2)[C@@H](O)[C@H]1O)NC(=O)COCCOCCOCC(=O)N1CCN(Cc2ccc(-c3c[nH]c4ccncc34)c(OCCc3ccc(-c4cccc5ccncc45)cc3)c2)CC1)NCCOCCOCCOCCOC[C@H]1OC[C@H](Nc2cncc(C(F)(F)F)n2)[C@@H](O)[C@H]1O` [compound 9] came in with an IC50 in test [1] (Table 2) greater than 1000 nM. The equilibrium dissociation constant (Kd) in test [2] is less than 100 nM. `CC1(C)C(=O)c2ccc(-c3cnc(N4CCN5C(=O)N(CCOCCNC(=O)CNC[C@H]6OC[C@H](Nc7cncc(C(F)(F)F)n7)[C@@H](O)[C@H]6O)C[C@@H]5C4)nc3)nc2N1Cc1cccnc1C#N` [compound 10] returned a half-inhibitory concentration (IC50) in test [1] (Table 2) greater than 1000 nM. The Kd in test [2] is less than 100 nM. Compound `CC1(C)C(=O)c2ccc(-c3cnc(N4CCN5C(=O)N(CCCNC(=O)CCN6CCN(CC(=O)NC[C@H]7OC[C@H](Nc8cncc(C(F)(F)F)n8)[C@@H](O)[C@H]7O)CC6)C[C@@H]5C4)nc3)nc2N1Cc1cccnc1C#N` [compound 11] had a half-inhibitory concentration (IC50) in test [1] (Table 2) of 100 to 500 nM. The Kd in test [2] is less than 100 nM. Taken in the same sequence, the figures for `CC1(C)C(=O)c2ccc(-c3cnc(N4CCN5C(=O)N(CCCNC(=O)COc6ccc(CN7CCN(C[C@H]8OC[C@H](Nc9cncc(C(F)(F)F)n9)[C@@H](O)[C@H]8O)CC7)cc6)C[C@@H]5C4)nc3)nc2N1Cc1cccnc1C#N` [compound 12] were 100 to 500 nM and less than 100 nM. For the compound `CC1(C)C(=O)c2ccc(-c3cnc(N4CCN5C(=O)N(CCCNC(=O)c6ccc(C(=O)NC[C@H]7OC[C@H](Nc8cncc(C(F)(F)F)n8)[C@@H](O)[C@H]7O)cc6)C[C@@H]5C4)nc3)nc2N1Cc1cccnc1C#N` [compound 13], the IC50 in test [1] (Table 2) is greater than 1000 nM. Further, the Kd in test [2] was less than 100 nM. Regarding `CC1(C)C(=O)c2ccc(-c3cnc(N4CCN5C(=O)N(CCCNC(=O)CNC[C@H]6OC[C@H](Nc7cncc(C(F)(F)F)n7)[C@@H](O)[C@H]6O)C[C@@H]5C4)nc3)nc2N1Cc1cccnc1C#N` [compound 14], the half-inhibitory concentration (IC50) in test [1] (Table 2) fell in the range of 100 to 500 nM. Also, the Kd in test [2] was less than 100 nM. Compound `CC1(C)C(=O)c2ccc(-c3cnc(N4CCN5C(=O)N(CCCNC(=O)[C@H]6CC[C@H](C(=O)NC[C@H]7OC[C@H](Nc8cncc(C(F)(F)F)n8)[C@@H](O)[C@H]7O)CC6)C[C@@H]5C4)nc3)nc2N1Cc1cccnc1C#N` [compound 15] displayed a 50% inhibitory concentration (IC50) in test [1] (Table 2) greater than 1000 nM. Further, in test [2], the equilibrium dissociation constant (Kd) was less than 100 nM. `CC1(C)C(=O)c2ccc(-c3cnc(N4CCN5C(=O)N(CCCNC(=O)COc6cccc(CC(=O)NC[C@H]7OC[C@H](Nc8cncc(C(F)(F)F)n8)[C@@H](O)[C@H]7O)c6)C[C@@H]5C4)nc3)nc2N1Cc1cccnc1C#N` [compound 16]: in test [1] (Table 2), the IC50 was greater than 1000 nM. For the same compound, the Kd in test [2] is less than 100 nM. In test [1] (Table 2), `CC1(C)C(=O)c2ccc(-c3cnc(N4CCN5C(=O)N(CCOCCNC(=O)[C@H]6CC[C@H](C(=O)NC[C@H]7OC[C@H](Nc8cncc(C(F)(F)F)n8)[C@@H](O)[C@H]7O)CC6)C[C@@H]5C4)nc3)nc2N1Cc1cccnc1C#N` [compound 17] came in with an IC50 of 500 to 1000 nM. For the same compound, the dissociation constant (Kd) in test [2] was less than 100 nM. Consider `CC1(C)C(=O)c2ccc(-c3cnc(N4CCN5C(=O)N(CCOCCNC(=O)c6ccc(C(=O)NC[C@H]7OC[C@H](Nc8cncc(C(F)(F)F)n8)[C@@H](O)[C@H]7O)cc6)C[C@@H]5C4)nc3)nc2N1Cc1cccnc1C#N` [compound 18], for which the 50% inhibitory concentration (IC50) in test [1] (Table 2) was greater than 1000 nM. Consider `CC(C)C[C@@H]1NC(=O)[C@H](Cc2cnc[nH]2)NC(=O)[C@H](Cc2c[nH]c3ccccc23)NC(=O)[C@H](C)NC(=O)[C@@H]2CSSC[C@H](NC(=O)[C@H](Cc3c[nH]c4ccccc34)NC(=O)[C@H](C(C)C)NC(=O)[C@H](CC(C)C)NC(=O)[C@H](CCC(=O)O)NC(=O)CNC1=O)C(=O)N[C@@H]([C@@H](C)O)C(=O)N1CCC[C@@H]1C(=O)N1C[C@H](NC(=O)CNC(COCCC(=O)NCCOCCOCCOCCOC[C@H]3OC[C@H](Nc4cncc(C(F)(F)F)n4)[C@@H](O)[C@H]3O)COCCC(=O)NCCOCCOCCOCCOC[C@H]3OC[C@H](Nc4cncc(C(F)(F)F)n4)[C@@H](O)[C@H]3O)C[C@H]1C(=O)N[C@@H](CC(=O)O)C(=O)N2` [compound 97], for which the dissociation constant Kd in test [3] and in test [5] was less than 100 nM in each case. In addition, the EC50 in test [4] and in test [6] was less than 100 nM in each case.
